Consider twelve compounds from patent US5434188A, “1-ether and 1-thioether-naphthalene-2-carboxamides as inhibitors of cell adhesion and as inhibitors of the activation of HIV” (Warner-Lambert Company, priority 1994, dated 1995).

The test system of experiment [1] is human neutrophil adhesion to TNF-α stimulated human umbilical vein endothelial cells. The experiment in a line: Modified method: inhibition of human neutrophil adhesion to TNF-α stimulated HUVEC (ECA), calcein-labeled neutrophils. It counts as cell-based. The note with it: for inhibition at 100 µM / inhibition at 33 µM: Neutrophil, neutrophils labeled with calcein; for inhibition at 100 µM: footnote d: 100 μM; for inhibition at 33 µM: footnote c: 33 μM. The method, then:
MODIFIED METHOD FOR DETERMINING THE INHIBITION OF HUMAN NEUTROPHIL ADHESION TO TNF-α STIMULATED HUMAN UMBILICAL VEIN ENDOTHELIAL CELLS
Second passage HUVEC (Clonetics Corporation, San Diego, Calif., CC-2617) were seeded into Corning (Corning glass works, Corning, N.Y.) 96-well cell culture plates at approximately 5×10^3 cells/well and grown to confluency in supplemented endothelial basal medium (EBM, MCDB-131, Clonetics, 10 ng/mL EGF, 1 μg/mL hydrocortisone, 0.4% bovine brain extract, 5% Fetal Bovine Serum). One day prior to running the assay, typically 3 days postseeding, the cultures were re-fed with 0.2 mL/well supplemented EBM (S-EBM).
Preparation of Test Compounds
Test compounds were prepared as 10 mL stock solutions at a concentration of 1.0 mM. The compound were initially solubilized in 0.1 mL DMSO followed by the addition of 9.9 mL S-EBM. The drug preparations were then diluted in one step to a concentration of 66.6 μM. Solubilizations and dilutions were performed in polystyrene containers.
Recombinant human tumor necrosis factor-α(TNF, Genzyme, Boston, Mass., code TNF-H) was prepared at 400 U/mL in S-EBM. Stock TNF was prepared to 20,000 U/mL in Delbecco's phosphate buffered saline (PBS, Gibco, Grand Island, N.Y.) plus 0.1% BSA and stored at -70° C. HUVEC were washed one time with 0.2 mL warm unsupplemented EBM and then stimulated for 4 hours at 37° C. with 200 U/mL TNF in the presence of 33.3 μM test compound. This was accomplished by adding 0.1 mL of 400 U/mL TNF and 0.1 mL 66.6 μM test compound. These additions were done slowly as to not disrupt the HUVEC monolayer. Each compound was tested in six wells. Unstimulated (Vehicle control) and TNF-stimulated without test compound treatments were also run in each plate.
One hour prior to adding the neutrophils to the HUVEC, neutrophils (5×10^6/ mL) were labeled for 30 minutes at 37° C. with 5 μM calcein-AM (Molecular Probes, Eugene, Oreg.) in Hanks' balanced salt solution plus 0.45% BSA. Stock calcein was prepared to 5 mM in anhydrous DMSO and stored desiccated at -20° C. At the end of the incubation the cells were washed two times in cold HBSS and resuspended to a final concentration of 1×10^6 cells/mL in unsupplemented EBM.
Addition of Neutrophils to HUVEC
At the end of the 4-hour stimulation and immediately prior to the addition of the neutrophils to the HUVEC monolayer, the plates were washed with 0.2 mL warm unsupplemented EBM to remove TNF and drug. Neutrophils (1×10^5 cells) were slowly added to each of the treated wells and incubated for 30 minutes at 37° C. At the end of the incubation the plates were washed two times with 0.2 mL warm unsupplemented EBM followed by a final addition of 0.1 mL for plate scanning.
Determination of Relative Fluorescence
The relative fluorescence was determined using a Millipore Cytofluor 2300 system (excitation=480, emission=530, sensitivity=4).
Results were expressed as means of percent inhibition of TNF-stimulated adherence, using the following equation: [formula]
Some of these compounds were tested at concentrations of 33.3 μM, 10.0 μM, 3.3 μM, and 1.0 μM to determine IC50 values. Linear regression analysis of the means of the inhibition values were used to determine the IC50.

Experiment [2] relates to CD4 down regulation and viral expression in HIV-infected cells. The note with it: Hamamoto, et al. 1989; cited from earlier work.
Experiment [3] concerns HIV-1 activation in OM-10.1 cells. The note with it: poster NCDDG/AIDS 1991; cited from earlier work.
Experiment [4] concerns human neutrophil adhesion to TNF-α, IL-α, and LPS-stimulated human umbilical vein endothelial cells. The experiment in a line: Inhibition of human neutrophil adhesion to stimulated human umbilical vein endothelial cells (ECA), 51Cr-labeled neutrophils. It counts as cell-based. The note with it: footnote b: 100 μM, neutrophils labeled with Cr. The source says: METHOD FOR DETERMINING THE INHIBITION OF HUMAN NEUTROPHIL ADHESION TO TNF-α, IL-α, AND LPS-STIMULATED HUMAN UMBILICAL VEIN ENDOTHELIAL CELLS (ECA)
Neutrophils were isolated from anticoagulant-treated venous blood obtained from healthy human volunteers according to the method of Ferrante and Thong (J. Immunol. Methods 24:389-393 (1978)). The cell preparations consisted of greater than 98% neutrophils.
Second passage human umbilical vein endothelial cells (HUVEC) (Clonetics, San Diego, Calif.) were seeded into Falcon 24-well cell culture plates (Becton Dickinson, Lincoln Park, N.J.) at approximately 2×10^4 cells per well. The cells were grown to confluent monolayers in endothelial basal medium (EBM, Clonetics) supplemented with 5% fetal calf serum (Hyclone Laboratories, Logan, Utah), 10 ng/mL EGF, 1 μg/mL hydrocortisone, 0.4% bovine brain extract (Clonetics) in 5% CO2 at 37° C. […]
Stimulation of HUVEC with tumor necrosis factor-α (TNF-α) (Genzyme, Cambridge, Mass.), interleukin (IL-1α) (Genzyme) or E. coli 0111:B4 lipopolysaccharide (LPS) (Sigma) in the presence or absence of drug was initiated 4 hours prior to the addition of neutrophils. […] Lysates were collected and the radioactivity in each well was determined by gamma ray spectroscopy. […]

Experiment [5] concerns HIV-1 activation in OM-10.1 cells. The experiment in a line: Inhibition of activation of latent HIV-1 in the OM-10.1 cell line (TNF-α induced). It counts as cell-based. The note with it: Human immunodeficiency virus 1, read-out: OM-10n (IC50 μM). The source says:
The cellular pathways involved in mediating the activating signal from the plasma membrane to the integrated virus, resulting in HIV-1 expression, are much less clear. Recently, the development of a reliable and simple system for evaluating compounds that could prevent activation of latent HIV was reported at the National […] (NCDDG)/AIDS by P. Feorino, S. T. Butera, T. M. Folks, and R. F. Schinazi, Nov. 3-7, 1991. The assay system employed the OM-10.1 cell line, a unique chronically-infected promyelocytic clone which remains CD4+ until HIV-1 activation with tumor necrosis factor-α. The expression of CD4+ on the cell surface and the activity of reverse transcriptase are used as markers for quantitating viral expression. Alternatively, other HIV markers, such as protease activity, which are known to those of skill in the art can be used. OM-10.1 cells remain CD4^+ until viral activation and respond to tumor necrosis factor induction, and therefore, these cultures are used to conveniently and rapidly examine pharmacologics for an ability […] down modulation (decrease in expression of CD4^+ on the cell surface) and HIV-1 expression.
A variety of compounds known to have antiviral properties against either acutely or chronically infected cells were evaluated for their ability to inhibit HIV expression in these OM-10.1 cells. […]

For another experiment, the system named is ICAM-1. The experiment in a line: ELISA of ICAM-1 on TNFα stimulated HUVEC. Type of experiment: cell-based, human. Particulars: first of the two values. The method, then: (§1) Murine monoclonal anti-human ICAM-1 (R & D Systems, Cat No. BBA-4) or murine monoclonal anti-human E-selectin (R & D, Cat No. BBA-2) dissolved in DMEM/2%BSA were added to each well at 0.5 μg/mL and allowed to incubate at 37° C. for 2 hours. HUVEC monocultures were then washed 4 times with DMEM/2%BSA. A peroxidase conjugated sheep anti-mouse IgG (Cappel) was added (1:3,000 dilution) and allowed to incubate 1 hour at 37° C. The cells were then washed 4 times with DMEM. A color reagent (Biorad) was added to the fixed cells and incubated 15 minutes at room temperature. The reaction was stopped with a 2% oxalic acid solution and the absorbance read at 414 nm on a titertek plate reader.
(§2) Compounds were dissolved in DMSO at a concentration of […] and diluted with media to obtain final testing concentrations. HUVECs received compound dissolved in media 30 minutes before the TNFα challenge. The absorbance of non-stimulated HUVECs was subtracted from the absorbance values of TNFα stimulated cells before percent inhibition was determined. Percent inhibition was determined by comparing the absorbance of vehicle treated cells with drug treated cells. IC50 s were determined using linear regression analysis.
(In an ELISA, binding on a coated surface is turned into a signal by an enzyme label.)

The test system of another experiment is E-selectin. The experiment in a line: ELISA of E-selectin on TNFα stimulated HUVEC. Type of experiment: cell-based, human. Particulars: second of the two values. As to the method:
as §1, §2

Broadly, the inhibition is the percentage by which the read-out fell short of the control. As to `COc1ccc2ccc(C(=O)NCc3ccccc3)c(OC(C)C)c2c1` [Example 4, 7-Methoxy-1-(1-methylethoxy)-N-(phenylmethyl)-2-naphthalenecarboxamide], the inhibition at 100 µM in experiment [1] is 14%.

In the case of `CCCCCCCCCCCCCC(=O)O[C@@H]1[C@@H](C)[C@@]2(O)[C@@H](C=C(CO)C[C@]3(O)C(=O)C(C)=C[C@@H]23)[C@@H]2C(C)(C)[C@]12OC(C)=O` [12-0-tetradecanoylphorbol-13-acetate], the “effect on CD4 down regulation and HIV expression, in words” value in experiment [2] was “mediates CD4 down regulation and viral expression in HIV-infected cells”. Consider `CC(=O)N(O)CCCCCNC(=O)CCC(=O)N(O)CCCCCNC(=O)CCC(=O)N(O)CCCCCN` [desferrioxamine], for which the “inhibition of HIV-1 activation, in words” value in experiment [3] is on record as “modest inhibitors of the activation of HIV-1”. In the case of `CN[C@@H]1C[C@H]2O[C@@](C)([C@@H]1OC)n1c3ccccc3c3c4c(c5c6ccccc6n2c5c31)C(=O)NC4` [Staurosporine, staurosporine], the “effect on CD4 down regulation and HIV expression, in words” value in experiment [2] is given as “effective TPA inhibitor for both of these actions”.

With “interferon Y: modest inhibitor of the activation of HIV-1”, the “inhibition of HIV-1 activation, in words” value in experiment [3] is recorded as “modest inhibitors of the activation of HIV-1”.

For the compound `Cc1cn([C@H]2C[C@H](F)[C@@H](CO)O2)c(=O)[nH]c1=O` [3'-fluoro-3'-deoxythymidine (FLT), 3'-fluoro-3'-deoxythymidine], the “inhibition of HIV-1 activation, in words” value in experiment [3] is given as “modest inhibitors of the activation of HIV-1”. Turning to `COc1ccc2c(OC(C)C)c(C(N)=O)ccc2c1` [Example 6, 6-Methoxy-1-(1-methylethoxy)-2-naphthalenecarboxamide], the inhibition at 33 µM in experiment [1] is 9%. The same measure, in the same setting: as for `COc1ccc2ccc(C(=O)NC(C)C)c(OC(C)C)c2c1` [Example 3, 7-Methoxy-1-(1-methylethoxy)-N-(1-methylethyl)-2-naphthalenecarboxamide], the figure is 64%; as for `COc1ccc2ccc(C(N)=O)c(OC)c2c1` [Example 7, 1,7-Dimethoxy-2-naphthalenecarboximide], 15%. The IC50 is the midpoint of a concentration-inhibition curve. `CC(C)Oc1ccc2ccc(C(N)=O)c(OC(C)C)c2c1` [Example 5, 1,7-Bis-(1-methylethoxy)-2-naphthalenecarboxamide] came in with an inhibition at 100 µM in experiment [4] of 45%. In experiment [5], the IC50 was 0.5 µM. For `COc1ccc2ccc(C(N)=O)c(OC(C)C)c2c1` [Example 1, 7-Methoxy-1-(1-methylethoxy)-2-naphthalenecarboxamide], the IC50 was 11 µM in experiment [1] (footnote a, neutrophil adhesion to stimulated HUVEC, neutrophil label not given) and 2.5 µM in experiment [5]. Further, in the experiment with ICAM-1, the “ICAM/ESEL % Inhib @ 30 μM: ICAM” value is 77%. In addition, the “ICAM/ESEL % Inhib @ 30 μM: ESEL” value with E-selectin came to 84%. Turning to `CCNC(=O)c1ccc2ccc(OC)cc2c1OC(C)C` [Example 2, N-Ethyl-7-methoxy-1-(1-methylethoxy)-2-naphthalenecarboxamide], in experiment [1], the inhibition at 100 µM is 73%.
